{
  "source": "patent US4596806A",
  "about": "“7-piperidino-1,2,3,5-tetrahydroimidazo[2,1-b]-quinazolin-2-one having platelet aggregation inhibitory activity” (Daiichi Seiyaku Co., Ltd., priority 1983, dated 1986)",
  "test_system": "platelet aggregation",
  "assay": "Test of Platelet Aggregation Inhibition (in vitro), rat PRP",
  "assay_type": "cell-based, rat (Wistar Imamichi)",
  "settings": "rat blood, read-out: Platelet Aggregation Inhibitory Activity (in vitro: IC50)",
  "experimental": "The test was performed as follows in accordance with the method of Ashida et al, Thrombosis and Haemostasis, Vol. 40, p542 (1979).\nBlood was taken by puncture from the heart of a Wistar Imamichi rat under anesthesia with pentobarbital into a syringe containing 1/10 volume of a 3.13% aqueous solution of sodium citrate dihydrate, and the citrated blood was centrifuged to obtain a platelet-rich-plasma (PRP). In the same manner, citrated blood was collected from the vein of a healthy human who had not taken aspirin or any other anti-inflammatory agent since before 10 days, followed by centrifugation to obtain PRP. 0.005 ml of each test compound was added to 0.445 ml each of these PRP samples, and the system was warmed at 30° C. for 1 minute. 0.05 ml of an aggregation inducer (ADP or collagen) was then added thereto, and platelet aggregation was determined according to the method of Born, Nature, Vol. 194, p927 (1962). The inhibitory activity of platelet aggregation was expressed in terms of 50% inhibition concentration, and the results obtained are shown in Table 2.",
  "note": "Like-named read-outs stand apart in the source and are kept apart here.",
  "data": [
    {"smiles": "O=C1CN2Cc3cc(N4CCCCC4)ccc3N=C2N1", "note": "[Compound (I), 7-piperidino-1,2,3,5-tetrahydroimidazo[2,1-b]quinazolin-2-one]", "values": [
      {"measurement": "IC50", "setting": "inducer ADP", "result": 3800, "unit": "nM"},
      {"measurement": "IC50", "setting": "inducer collagen", "result": 330, "unit": "nM"}
    ]}
  ]
}
